From publication PMC10520499, “Next step in the development of mesoprogestins: the preclinical profile of EC313” (Frontiers in Endocrinology, 2023) come the findings set out here.

Experiment [1] has as its system human endometriotic tissue grafts. Briefly: Human endometriotic xenografts in immunodeficient mice. The settings on record: s.c. once daily 14 days; EC313 0,01, 0.1, 1 mg/animal/day; Ulipristal acetate 1 mg/animal/day; vs vehicle control. The format is in vivo. The source says:
Endometriosis is one of the expected clinical target indications for the development of EC313. But, there are no reliable pre-clinical models known at present. From all experimental approaches, the transplantation of human endometriotic tissue into immunodeficient mice resembles the clinical situation to some extent closely. Treatment of EC313 was compared with UPA as a reference compound. Two to four small pieces of human endometriotic tissue were placed into a s.c. pouch in the pelvic area of each of the ovariectomized mice. At the same time, an E2-releasing pellet (0.36 mg/pellet/60 days) was implanted s.c. in the neck of the mice. Furthermore, 2 weeks after implantation, the mice were treated with once-daily s.c. injections of vehicle, EC313 (0,01, 0.1, and 1 mg/animal/day), or Ulipristal acetate (1 mg/animal/day) for 14 days. The mice were sacrificed 24 hours after the last injection and all identified endometriotic grafts were resected, weighed, and subjected to visual examination.
In general terms: Xenograft models place foreign cells or tissue in a host animal.

Experiment [2] relates to progesterone receptor (PRA, PRB) in T47D cells. Briefly: PR nuclear translocation in T47D cells (Western blot). The format is cell-based, human. The following applies: 100 nM, compared to Promegestone, Mifepristone or Asoprisnil. The procedure: Subsequently, progesterone receptors present in nuclear as well as cytosolic fractions were stained using Western blotting.
[…] (constitutively expressing the progesterone receptor) were treated with 100 nM of EC313 or reference compounds to activate PR. After 6h and after 24h cells were lysed, the nuclear and cytosolic fractions were separated and Western blots of these fractions were prepared.
Blots were stained for PRA and PRB as well as the housekeeping proteins GAPDH (as a marker for the cytosolic fraction) and histone H3 (as a marker for the nuclear fraction). Nuclear and cytoplasmic proteins from […] were extracted after cell stimulation with PR ligands and the nuclear and cytoplasmic fractions were analyzed for PRB and PRA content using Western blotting.
In general terms: In western blotting, separated proteins are transferred to a membrane and probed.

Experiment [3] concerns estrogen-primed endometrium of immature rabbits. Briefly: McPhail assay, estrogen-primed rabbit endometrium. Format: in vivo. The following applies: 10 and 30 mg/animal/day; progesterone 1 mg/animal/day; p< 0.05.
Experiment [4] deals with T1, ligand binding domain of the human androgen receptor (AR-LBD) (Homo sapiens, UniProt P10275).
T1 construct: purchased Thermo Fisher Scientific
Kind of experiment: Competitive binding, AR ligand binding domain. The procedure: (§1) The study aimed to characterize the competitive binding profile of EC313 to relevant human nuclear receptors. For the assays, commercially available ‘ligand binding domain’ proteins were purchased (Thermo Fisher Scientific). In addition, the full-length receptor proteins were expressed in transfected HI insect cells using the `Bac-to-bac Baculovirus expression system´ (Thermo Fisher Scientific). Cellular lysates served as receptor preparation. Receptor protein preparations were incubated with tritiated reference ligands and EC313 or reference steroids at concentrations between 0.1 and 1000 nM for 2h at 4°C to reach equilibrium. Subsequently, unbound steroids were adsorbed to dextran-coated charcoal (Sigma Aldrich), separated by filtration, and the remaining radioactivity was quantified in a ß-counter (Perkin Elmer). Displacement curves were fitted using the GraphPad Prism 7 free version to obtain EC50 values. Relative binding affinity (RBA [%], (C50ref/C50test)*100) and the competition coefficient (C50test/C50ref) were used to describe the relative binding potency of EC313 compared to the reference ligands.

Experiment [5] addresses T2, human estrogen receptor α (Homo sapiens, UniProt P03372).
T2 construct: coding for the full length human estrogen receptors α and β, respectively, were obtained from GenScript; made in house; host or cells: HI (Hi5) insect cells, baculovirus; cellular lysate
Kind of experiment: Competitive binding, human estrogen receptor α. The settings on record: ERα, full length. The procedure:
as §1
There are two subtypes of estrogen receptors (ER), ERα and ERβ, coded in different genes. Plasmids pFastBac1-ERa and pFastBac1-ERb, coding for the full length human estrogen receptors α and β, respectively, were obtained from GenScript. […]

T1 sequence (P10275 669-900 limits assumed): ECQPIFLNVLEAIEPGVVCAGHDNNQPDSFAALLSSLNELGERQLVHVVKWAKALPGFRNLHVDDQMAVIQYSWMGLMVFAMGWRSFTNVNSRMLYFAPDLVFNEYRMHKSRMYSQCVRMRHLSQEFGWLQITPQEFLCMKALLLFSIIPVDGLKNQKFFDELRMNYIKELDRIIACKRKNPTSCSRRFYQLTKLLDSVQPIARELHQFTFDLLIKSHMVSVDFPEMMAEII
T2 sequence (P03372 whole entry): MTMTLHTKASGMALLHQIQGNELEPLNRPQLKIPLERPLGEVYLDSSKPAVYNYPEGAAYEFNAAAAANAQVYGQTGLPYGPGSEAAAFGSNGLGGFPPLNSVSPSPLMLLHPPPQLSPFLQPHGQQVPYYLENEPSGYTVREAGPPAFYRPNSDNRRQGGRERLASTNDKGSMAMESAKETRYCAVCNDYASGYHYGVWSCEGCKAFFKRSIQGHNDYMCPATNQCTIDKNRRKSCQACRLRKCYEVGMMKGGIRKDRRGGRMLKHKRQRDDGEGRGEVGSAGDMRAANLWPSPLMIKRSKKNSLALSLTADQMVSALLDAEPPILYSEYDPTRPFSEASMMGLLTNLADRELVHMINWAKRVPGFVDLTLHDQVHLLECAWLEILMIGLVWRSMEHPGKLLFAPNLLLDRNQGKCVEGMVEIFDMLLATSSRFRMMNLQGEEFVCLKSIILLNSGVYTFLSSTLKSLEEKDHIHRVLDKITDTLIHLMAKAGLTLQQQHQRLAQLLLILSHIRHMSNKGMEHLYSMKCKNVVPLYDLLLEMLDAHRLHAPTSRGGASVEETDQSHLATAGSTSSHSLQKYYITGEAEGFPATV

Turning to `C[C@]12C[C@H](c3ccc(-c4ccoc4)cc3)C3=C4CCC(=O)C=C4CC[C@H]3[C@@H]1CC[C@]21OCCC1=C(F)F` [EC313], in experiment [1], the “weights of human endometriotic tissue grafts” value was “significantly lower weights of the grafts”. The “receptors retained in the nuclear fraction after 24 hours” value in experiment [2] is recorded as “retained more receptors in the nuclear fraction”. Further, the “antagonistic action with co-administered progesterone” value in experiment [3] is listed as “significant”. The compound further yielded an IC50 in experiment [4] (AR-LBD) of 1060 nM. Besides, the “AR-LBD Comp. Coefficient” value in experiment [4] (EC313 relative to Metribolone) amounted to 17. For the same compound, the “competitive displacement of [3H]-estradiol” value in experiment [5] is listed as “did not cause any competitive displacement”.

In general, IC50 refers to the point on the concentration scale where inhibition reaches its midpoint. A high value points to weaker potency in that assay.
